Measured values taken from patent US8557864B2, “Agent having neurotrophic factor-like activity” (Nagoya Industrial Science Research Institute, priority 2007, dated 2013).

Key:
MAP kinases = assay: Measurement of activation of MAP kinases in cultured nerve cells (western immunoblotting); assay type: cell-based; settings: fetal rat cerebral cortex nerve cells, compound 500 μg/ml, 30 minutes, relative to control
Description: Activation of MAP kinases was measured on respective compounds in Table 1 including the compound obtained in Production Example with western immunoblotting as follows. Nerve cells were dispersed from a cerebral cortex of a 17-day-old fetal rat and the nerve cells were cultured in a Dulbecco's modified eagle medium (DMEM) containing 5%; fetal bovine serum for 1 day. A culture solution was exchanged to a serum-free medium (B27 supplement added Neurobasal, Invitrogen Corporation), and the nerve cells were cultured in a culture petri dish coated with polyornithine at a density of 20,000 to 40,000 cells/cm^2. Three days later, each of the compounds in Table 1 was added thereto, and culture for 30 minutes was continued. Then, cells were recovered on ice with a solution of a Tris-HCL buffer as a base containing a phosphatase inhibitor. The protein concentration of the obtained cell extraction was determined using a BCA Protein Assay Kit (TAKARABIO INC.), a constant amount (3 μg for MAP kinase measurement, 5 μg for phosphorylated MAP kinase measurement) of the protein was electrophoresed with a polyacrylic amide gel. The protein was transcribed to a PVDF membrane from the gel after electrophoresis, and western immunoblotting was carried out using the primary antibodies: an anti-MAP kinase antibody (Cell Signaling Technology, Inc.) and an antiphosphorylated MAP kinase antibody (Cell Signaling Technology, Inc.), respectively. Subsequently, an enzyme activity was subjected to color development by being reacted with the secondary antibody: an alkaline phosphatase labeled anti-rabbit IgG antibody (Promega KK) to measure MAP kinases and phosphorylated MAP kinases. In addition, each compound was dissolved in 0.7% DMSO and adjusted to have a concentration of 500 μg/ml. A control was added with a phosphoric acid buffer containing 0.1% DMSO in the same amount as the compound.
The above obtained concentration measurement of the electrophoresis gel band was digitalized by calculating an intensity with Image J (BioArts International, Inc.). The numerical value of MAP kinases of each compound was divided by the numerical value of the control's MAP kinases, and the numerical value of phosphorylated MAP kinases of each compound was divided by the numerical value of the control's phosphorylated MAP kinases to find a ratio of the MAP kinases of each compound to the control and a ratio of the phosphorylated MAP kinases of the each compound to the control. Then, the obtained ratio of the phosphorylated MAP kinases to the control was divided by the obtained ratio of the MAP kinases to the control to find a ratio of the phosphorylated MAP kinases to the MAP kinases and graphs were formed and shown in FIGS. 1 to 3. Compound 1, compound 6, compound 11, compound 16, compound 21 and compound 36 in Table 1 were used from products made by Wako Pure Chemical Industries, Ltd.

[1] = test system: mice under chronic mild stress; assay: Tail suspension test after completion of stress; assay type: in vivo
Description: A site of 1 cm from the tip of the tail of a mouse was grasped by a hand, being apart from a floor from 10 cm, and an immobility time in suspension for 6 minutes was measured for 2 hours. Since the immobility time prolongs when the mouse has a depressive symptom (condition), a level of the depressive symptom (condition) can be evaluated from the length of the immobility time. FIGS. 6 and 7 show the results.
(§1) Example 2 is a behavior test in which the compound 8 was administered to a mouse as well as stress was applied and a suppression effect of the compound 8 on depressive and anxiety symptoms of the mouse was examined. On the other hand, the present example is a behavior test in which only stress was applied for 3 weeks without administering the compound 8 and stress was completed and a therapeutic effect of the compound 8 on depressive and anxiety symptoms of a mouse after removing stress was examined. Stress was applied to a mouse in the same manner as in Example 2. […]

[2] = test system: mice under chronic mild stress; assay: Burying the glass-marbles test after completion of stress; assay type: in vivo; settings: 20 μg/kg and 100 μg/kg; 1 week- and 2 week-administration groups after completion of stress
Description: Tips were bedded so as to have a height of 5 cm in a box with […] and 25 glass marbles (1.6 cm in diameter) were placed thereon at 5 cm-interval and behaviors of mice were observed. The number of buried glass marbles was found by counting each glass marble that was buried in ⅔ or more from visual observation from just above after 15 minutes as one count. The test was performed for 3 hours. Since a mouse under stress having an anxiety symptom (condition) takes such a behavior as burying glass marbles, a level of the anxiety symptom can be evaluated from the number of buried glass marbles.
as §1

CCCCCCC/C=C/C(=O)OCC [Compound 8, trans-2-decenoic acid ethyl ester]
ratio of phosphorylated MAP kinases to MAP kinases (MAP kinases): twice or more
ratio of phosphorylated MAP kinases to MAP kinases (MAP kinases; listed as trans-2-decenic acid ethyl ester): 11 times
immobility time, stressed vs non-stressed example ([1]; 500 μg/kg, 1 week-administration groups after completion of stress): no significant difference
immobility time, stressed vs non-stressed example ([1]; all administration examples, 2 week-administration groups after completion of stress): no significant difference
number of buried glass marbles, stressed vs non-stressed example [2]: no significant difference
